Where “and” joins values, the source holds several entries; their conditions need not be identical. Equal entries are not always repeated.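 Growth conditions: 96-well plates. Treatment: test compound, 48 hours, 5 concentrations. Analysis: linear interpolation between bracketing concentrations; unreached endpoints set to highest concentration. GI50 = concentration required for 50% inhibition of growth. TGI marks complete inhibition of growth.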 *1 amine or outer side, *2 acyl side, *3 side chain or, on linkers, in order; H or OH if unused. Where a SMILES comes first, the peptide text is derived from it. Bridges are numbered along the chain shown (N, C = ends). [ ]: non-standard residue; d: D form. The star is where a group is joined. ξ: configuration not given here. X35 = CC[C@H](C)[C@@H](N[*:1])[C@@H](O)CC(=O)O[C@H](C(=O)[C@H](C)C(=O)[*:2])C(C)C; NMeY = CN[C@@H](Cc1ccc(O)cc1)C(=O)O; NMeF = CN[CH](Cc1ccccc1)C(=O)O; ξNMeF = CNC(Cc1ccccc1)C(=O)O; NMeV = CN[CH](C(=O)O)C(C)C; Boc = CC(C)(C)OC(=O)*; OBn = c1ccc(CO*)cc1
Assays:
Test in all cases: growth of human tumour cells (NCI), 48 h
[1] = system: SW-620 colon
[2] = system: HCC-2998 colon
[3] = system: CAKI-1 renal
[4] = system: LOX IMVI melanoma
[5] = system: OVCAR-4 ovarian
[6] = system: SNB-19 CNS
[7] = system: SN12C renal
[8] = system: OVCAR-8 ovarian
[9] = system: HCT-15 colon
[10] = system: UO-31 renal
[11] = system: NCI-H226 lung
[12] = system: A498 renal
[13] = system: OVCAR-3 ovarian
[14] = system: T-47D breast

Row | SMILES | TGI [1] | TGI [2] | TGI [3] | TGI [4] | TGI [5] | TGI [6] | TGI [7] | TGI [8] | TGI [9] | TGI [10] | TGI [11] | TGI [12] | TGI [13] | TGI [14] | GI50 [4] | GI50 [13] | GI50 [6] | GI50 [7]
1 | COc1ccc2c(c1)CCc1c-2[nH]c2cc3c(cc2c1=O)OCO3 | > 100 µM | > 100 µM | > 100 µM | > 100 µM | > 100 µM | > 100 µM | > 100 µM | > 100 µM | > 100 µM | > 100 µM | – | – | – | – | – | – | – | –
2 | Nc1nc(SCC(=O)c2ccccc2)c2[nH]cnc2n1 | > 100 µM | > 100 µM | > 100 µM | > 100 µM | > 100 µM | > 100 µM | > 100 µM | > 100 µM | > 100 µM | – | > 100 µM | > 100 µM | > 100 µM | – | – | – | – | –
3 | COc1ccc(-c2sc(Br)c3c2C(=O)C2OC(=O)NC32)cc1OC (configuration not stated) | > 100 µM | – | > 100 µM | > 100 µM | > 100 µM | > 100 µM | > 100 µM | > 100 µM | > 100 µM | > 100 µM | > 100 µM | > 100 µM | > 100 µM | > 100 µM | – | – | – | –
4 | CCOC(=O)[C@@H]1[C@@H](c2ccccc2)N(C)O[C@@]1(c1ccccc1)C(F)(F)F | > 100 µM | – | > 100 µM | > 100 µM | > 100 µM | > 100 µM | > 100 µM | > 100 µM | > 100 µM | > 100 µM | > 100 µM | > 100 µM | > 100 µM | > 100 µM | – | – | – | –
5 | CCOC(=O)c1ncn(CCc2ccc(Cl)cc2)c1C | > 100 µM | > 100 µM | > 100 µM | > 100 µM | > 100 µM | > 100 µM | > 100 µM | > 100 µM | > 100 µM | > 100 µM | > 100 µM | > 100 µM | > 100 µM | – | – | – | – | –
6 | COc1cccc(NC(=O)CSc2nnc(Cc3ccccc3)o2)c1 | > 100 µM | > 100 µM | > 100 µM | > 100 µM | > 100 µM | > 100 µM | > 100 µM | > 100 µM | > 100 µM | > 100 µM | > 100 µM | > 100 µM | > 100 µM | – | – | – | – | –
7 | O=C1c2ccccc2C(=O)N1CCCOCc1c[nH]c(=O)[nH]c1=O | > 100 µM | – | > 100 µM | > 100 µM | > 100 µM | > 100 µM | > 100 µM | > 100 µM | > 100 µM | > 100 µM | > 100 µM | > 100 µM | > 100 µM | – | – | – | – | –
8 | CC(C)[C@@H](C(=O)N(C)[C@H](C(=O)N1CCC[C@H]1C(=O)OCc1ccccc1)C(C)C)N(C)C(=O)C(Cc1ccccc1)N(C)C(=O)[C@H](NC(=O)OC(C)(C)C)C(C)C (some centres not stated) (Boc-[dV][ξNMeF][NMeV][NMeV]P-OBn) | > 31.6 µM | – | > 31.6 µM | > 31.6 µM | > 100 µM | > 31.6 µM | > 100 µM | > 31.6 µM | > 31.6 µM | > 31.6 µM | > 100 µM | > 31.6 µM | > 67.2 µM | – | – | – | – | –
9 | CC[C@H](C)[C@H]1NC(=O)[C@@H](N)[C@@H](C)OC(=O)[C@H](Cc2ccc(OC)cc2)N(C)C(=O)[C@@H]2CCCN2C(=O)[C@H](CC(C)C)NC(=O)[C@@H](C)C(=O)[C@H](C(C)C)OC(=O)C[C@@H]1O (H-T[X35]LP[NMeY](Me); ester 1-C) | 50.1 µM | > 100 µM | – | > 100 µM | > 100 µM | > 100 µM | > 100 µM | > 100 µM | > 100 µM | 68.7 µM | > 100 µM | – | > 100 µM | – | – | – | – | –
10 | Cc1ccc(Nc2cccc3c2C(=O)c2cccc(Nc4ccc(C)cc4S(=O)(=O)O)c2C3=O)c(S(=O)(=O)O)c1 | > 100 µM | > 100 µM | > 100 µM | – | > 100 µM | > 100 µM | > 100 µM | > 100 µM | > 100 µM | > 100 µM | > 100 µM | > 100 µM | > 100 µM | – | – | – | – | –
11 | CNC(=O)C(C)Oc1ccc(OCC2CCCCC2)cc1 (configuration not stated) | – | – | – | > 100 µM | > 100 µM | > 100 µM | > 100 µM | > 100 µM | > 100 µM | > 100 µM | > 100 µM | > 100 µM | > 100 µM | – | – | – | – | –
12 | CC1(C)Cc2c(sc3[nH]c(=S)[nH]c(=S)c23)CS1 | > 100 µM | – | > 100 µM | > 100 µM | 65.8 µM | > 100 µM | > 100 µM | > 100 µM | > 100 µM | > 100 µM | > 100 µM | > 100 µM | 82.9 µM | 61.4 µM | – | – | – | –
13 | CC1(C)c2ccccc2N2C(c3ccccc3)=NOC21C (configuration not stated) | > 100 µM | – | > 100 µM | > 100 µM | > 100 µM | > 100 µM | > 100 µM | > 100 µM | > 100 µM | > 100 µM | > 100 µM | > 100 µM | > 100 µM | – | – | – | – | –
14 | CN(C)NC1=C([N+](=O)[O-])C=NN(c2ccccc2)C1 | 3.67 µM | 3.18 µM | 3.64 µM | 3.11 µM | 3.22 µM | 4.98 µM | 3.22 µM | 4.16 µM | 3.09 µM | 3.19 µM | 15.1 µM | 36 µM | 3.29 µM | – | – | – | – | –
15 | CNc1cc([N+](=O)[O-])ccc1C(=O)N1CCC[C@H]1CO | > 100 µM | – | – | > 100 µM | – | > 100 µM | > 100 µM | > 100 µM | > 100 µM | > 100 µM | > 100 µM | > 100 µM | > 100 µM | > 100 µM | – | – | – | –
16 | COc1ccccc1-n1nnc2c(N)nc(N)nc21 | > 100 µM | – | > 100 µM | > 100 µM | > 100 µM | > 100 µM | > 100 µM | > 100 µM | > 100 µM | > 100 µM | > 100 µM | > 100 µM | > 100 µM | > 100 µM | – | – | – | –
17 | CCN(CC)C(=O)CCn1cc(F)c(=O)[nH]c1=O | > 100 µM | – | – | > 100 µM | > 100 µM | > 100 µM | > 100 µM | > 100 µM | > 100 µM | > 100 µM | > 100 µM | – | > 100 µM | – | – | – | – | –
18 | CC(C)C(NC(=O)OC(C)(C)C)C(=O)N(C)C(Cc1ccccc1)C(=O)N(C)C(C(=O)OCc1ccccc1)C(C)C (stereo not drawn) (Boc-Val-[NMeF]-[NMeV]-OBn; configuration not given here) | > 100 µM | > 100 µM | – | 35.7 µM and > 100 µM | – | > 100 µM | > 100 µM | > 100 µM | > 100 µM | > 100 µM | > 100 µM | – | > 100 µM | – | 16.3 µM and 62.9 µM | 35.5 µM and > 100 µM | > 100 µM and 32.8 µM | 44.3 µM and > 100 µM
19 | Cc1ccc(Sc2ccccc2C23OC(C)(C4C(=O)N(c5ccccc5)C(=O)C42)N(C)C3=O)cc1 (configuration not stated) | > 100 µM | – | > 100 µM | > 100 µM | > 100 µM | > 100 µM | > 100 µM | > 100 µM | > 100 µM | > 100 µM | > 100 µM | > 100 µM | > 100 µM | > 100 µM | – | – | – | –
20 | O=c1[nH]c2c(c(=O)[nH]1)SC(c1ccccc1)C2 (configuration not stated) | > 100 µM | > 100 µM | > 100 µM | > 100 µM | > 100 µM | > 100 µM | – | > 100 µM | > 100 µM | > 100 µM | > 100 µM | > 100 µM | > 100 µM | – | – | – | – | –
21 | C=C1CC[C@@H]2C13[C@@H]1[C@H](CC(=O)[C@@]23C)C1(C)C (some centres not stated) | > 100 µM | – | > 100 µM | > 100 µM | > 100 µM | – | > 100 µM | > 100 µM | > 100 µM | > 100 µM | > 100 µM | > 100 µM | > 100 µM | > 100 µM | – | – | – | –
22 | CCCCC(=O)/C=c1/cc(C)[nH]c2cccc3cnn1c32 | > 100 µM | – | > 100 µM | > 100 µM | > 100 µM | > 100 µM | > 100 µM | > 100 µM | > 100 µM | > 100 µM | > 100 µM | > 100 µM | > 100 µM | > 100 µM | – | – | – | –
23 | CCC12C=CCN(CCc3c([nH]c4ccccc34)/C=C\1)C2 (configuration not stated) | > 100 µM | > 100 µM | > 100 µM | > 100 µM | > 100 µM | > 100 µM | > 100 µM | – | > 100 µM | > 100 µM | > 100 µM | > 100 µM | > 100 µM | – | – | – | – | –
24 | CN(c1ccccc1)c1cc2ccccc2nn1 | > 100 µM | – | > 100 µM | > 100 µM | > 100 µM | > 100 µM | > 100 µM | > 100 µM | > 100 µM | > 100 µM | > 100 µM | > 100 µM | > 100 µM | – | – | – | – | –
25 | Cc1cc(C)c(NS(=O)c2cccc(C(F)(F)F)c2)c(C)c1 (configuration not stated) | > 100 µM | – | – | – | – | > 100 µM | > 100 µM | > 100 µM | > 100 µM | > 100 µM | > 100 µM | > 100 µM | > 100 µM | > 100 µM | – | – | – | –
26 | COc1cc(S(=O)(=O)Nc2ccc(-c3csc(N4C(=O)C(C)SC4c4cccs4)n3)cc2)ccc1Cl (configuration not stated) | > 100 µM | – | > 100 µM | 96.7 µM | – | – | > 100 µM | > 100 µM | > 100 µM | > 100 µM | > 100 µM | > 100 µM | > 100 µM | 27.3 µM | – | – | – | –

From PubChem BioAssay (NCI)
